Test results as given in publication PMC12250835, “Novel 3-Methyl-1,6-Diazaphenothiazine as an Anticancer Agent—Synthesis, Structure, and In Vitro Anticancer Evaluation” (Molecules, 2025).

Tests used:
[1] = system: C32 cells; design: method as in PMID 31432325; details: 50 µM, 72 h incubation; cited from earlier work
[2] = system: COLO829 cells; design: method as in PMID 31410885; details: 50 µM, 72 h incubation; cited from earlier work
[3] = system: C32 amelanotic melanoma cells; assay: WST-1 cell viability assay, C32; type: cell-based; details: Homo sapiens, concentration range 1–100 µM
Method: (§1) Human A375, C32 amelanotic and COLO829, G361 melanotic melanoma cells, purchased from ATCC (ATCC Manassas, VA, USA), were incubated in a humidified 5% CO2 incubator at 37 °C. The cells were cultured in the recommended medium supplemented with inactivated fetal bovine serum and the following antibiotics: penicillin (100 U/mL), neomycin (10 μg/mL) and amphotericin B (0.25 μg/mL). Treatment with the studied compounds (B6–B10) began 24 h after seeding. The analyzed compound solutions were obtained by diluting stock solutions in a culture medium. The analysis via WST-1 assay was used for compound concentrations ranging from 1 µM to 100 µM. Other studies, concerning the assessment of intracellular GSH levels and apoptosis, were performed on the B8 and B10 derivatives at concentrations of 50 μM and 100 µM.
(§2) The viability of cells was assessed using the cell proliferation reagent WST-1. The reagent is a tetrazolium salt (slightly red) that can be reduced in viable cells to formazan dye (dark red) by mitochondrial dehydrogenases. In the analysis, WST-1 was added to cells cultured in 96-well microplates (10 µL/well) 3 h before the measurement. Absorbance at 440 nm was read using a microplate reader (Infinite 200 PRO, TECAN, Männedorf, Switzerland), and 650 nm was used as the reference wavelength. In the experiment, control samples were normalized to 100%. All the examined samples were calculated as percentages of the control.

[4] = system: normal human fibroblasts (HDF); assay: WST-1 cell viability assay, HDF; type: cell-based; details: for IC50: Homo sapiens, Fibroblast, concentration range 1–100 µM; for reduction in cell viability in comparison to the control: concentrations equal to and above 25 µM, all incubation time points
Method: [Worded in the source for another cell line; this cell line is reported under the same test.] as §1, §2

[5] = system: A375 amelanotic melanoma cells; assay: WST-1 cell viability assay, A375; type: cell-based; details: Homo sapiens, A-375, concentration range 1–100 µM
Method: as §1, §2

[6] = system: G361 melanotic melanoma cells; assay: WST-1 cell viability assay, G361; type: cell-based; details: Homo sapiens, G-361, concentration range 1–100 µM
Method: as §1, §2

[7] = system: COLO829 melanotic melanoma cells; assay: WST-1 cell viability assay, COLO829; type: cell-based; details: Homo sapiens, COLO-829, concentration range 1–100 µM
Method: as §1, §2

[8] = system: G361 melanotic melanoma cells; assay: Vitality assay, intracellular GSH level, G361; type: cell-based, human; details: 72 h
Method: as §1
(§3) All the experiments were performed using the fluorescence image cytometer NucleoCounter® NC-3000™ (ChemoMetec, Lillerød, Denmark). For the vitality assay, treatment cells were stained with solution 5 according to the manufacturer’s protocol and analysis was conducted using NucleoView NC-3000 software 2.1.25.12 (ChemoMetec, Lillerød, Denmark) according to the vitality assay protocol.

[9] = system: C32 amelanotic melanoma cells; assay: Vitality assay, intracellular GSH level, C32; type: cell-based, human; details: 72 h
Method: as §1, §3

[10] = system: C32 amelanotic melanoma cells; assay: Mitochondrial potential assay (JC-1), C32; type: cell-based, human; details: 72 h
Method: as §1
(§4) The mitochondrial potential assay was conducted using fluorescent cationic dye JC-1, which accumulates in the mitochondria in a potential-dependent manner. After cell treatment, samples were suspended in 12.5 µL of solution 7 (JC-1) (ChemoMetec, Lillerød, Denmark) and then incubated at 37 C for 10 min. In the next step, the […] cells were centrifuged for 5 min at 400× g, washed twice with PBS and resuspended in 0.25 mL of solution 8 (DAPI) (ChemoMetec, Lillerød, Denmark). In the last step of sample preparation, cells were loaded into 8-chamber NC-Slides A8™ and analyzed immediately using the mitochondrial potential assay protocol. Scatterplots of the obtained results were used to demarcate the percentage of cells with a different mitochondrial membrane potential.

[11] = system: G361 melanotic melanoma cells; assay: DNA fragmentation assay, G361; type: cell-based, human; details: G361, 100 µM, 72 h
Method: as §1
(§5) For the DNA fragmentation assay, cells were fixed with 70% cold ethanol (24 h at 0–4 °C). In the next step of the analysis, the cell samples were washed with PBS, centrifuged, and stained with solution 3 (ChemoMetec, Lillerød, Denmark) containing DAPI and 0.1% triton X-100 in PBS. The analysis was conducted according to the DNA fragmentation assay protocol.

[12] = system: C32 amelanotic melanoma cells; assay: DNA fragmentation assay, C32; type: cell-based, human; details: 72 h
Method: as §1, §5

[13] = system: G361 melanotic melanoma cells; assay: Mitochondrial potential assay (JC-1), G361; type: cell-based, human; details: 72 h
Method: as §1, §4

SMILES | IC50 ([3]; C32, 24 h exposure) | IC50 ([3]; C32, 48 h exposure) | IC50 ([3]; C32, 72 h exposure) | IC50 ([5]; A375, 24 h exposure) | IC50 ([5]; A375, 48 h exposure) | IC50 ([5]; A375, 72 h exposure) | IC50 ([6]; G361, 24 h exposure) | IC50 ([6]; G361, 48 h exposure) | IC50 ([6]; G361, 72 h exposure) | IC50 ([7]; COLO829, 24 h exposure) | IC50 ([7]; COLO829, 48 h exposure) | IC50 ([7]; COLO829, 72 h exposure) | IC50 ([4]; 24 h exposure) | IC50 ([4]; 48 h exposure) | IC50 ([4]; 72 h exposure) | reduction in cell viability in comparison to the control [4] | cells with low GSH levels (Q1ll, GSH-depleted cells) ([8]; G361, 50 µM) | cells with low GSH levels (Q1ll, GSH-depleted cells) ([8]; G361, 100 µM) | cells with low GSH levels (Q1ll, GSH-depleted cells) ([9]; C32, 50 µM) | cells with low GSH levels (Q1ll, GSH-depleted cells) ([9]; C32, 100 µM) | other results
CN(C)/N=N/c1[nH]cnc1C(N)=O [dacarbazine] |  |  |  |  |  |  |  |  |  |  |  |  |  |  |  |  |  |  |  |  | reduction in C32 cell viability (the analyzed parameter) [1]: about 50%; maximum reduction in COLO829 cell viability [2]: about 25%
C=CCN1c2cccnc2Sc2cc(C)cnc21 [B8, 3-metyhl-10-allyl-1,6-diazaphenothiazine] | 129 µM | 105 µM | 59.6 µM | 393 µM | 166 µM | 91.2 µM | 168 µM | 79.9 µM | 24.6 µM | 220 µM | 64.1 µM | 31.4 µM |  | 142 µM | 125 µM |  | 21% | 33% | 20% | 36% | depolarized cells, decreased mitochondrial membrane potential (Q1lr) ([10]; C32, 50 µM): 18%; depolarized cells, decreased mitochondrial membrane potential (Q1lr) ([10]; C32, 100 µM): 25%; cells with fragmented DNA (M1) [11]: 12%; cells with fragmented DNA (M1) ([12]; C32, 50 µM): 11%; cells with fragmented DNA (M1) ([12]; C32, 100 µM): 22%; viability reduction in comparison to the control ([4]; 75 µM and 100 µM, 48 h and 72 h of incubation): > 20%; depolarized (early apoptotic) cells (Q1lr) ([13]; G361, 50 µM): 13%; depolarized (early apoptotic) cells (Q1lr) ([13]; G361, 100 µM): 26%

The next lines start with results.

IC50 ([3]; C32, 24 h exposure) | IC50 ([3]; C32, 48 h exposure) | IC50 ([3]; C32, 72 h exposure) | IC50 ([5]; A375, 24 h exposure) | IC50 ([5]; A375, 48 h exposure) | IC50 ([5]; A375, 72 h exposure) | IC50 ([6]; G361, 24 h exposure) | IC50 ([6]; G361, 48 h exposure) | IC50 ([6]; G361, 72 h exposure) | IC50 ([7]; COLO829, 24 h exposure) | IC50 ([7]; COLO829, 48 h exposure) | IC50 ([7]; COLO829, 72 h exposure) | SMILES | IC50 ([4]; 24 h exposure) | IC50 ([4]; 48 h exposure) | IC50 ([4]; 72 h exposure) | reduction in cell viability in comparison to the control [4] | cells with low GSH levels (Q1ll, GSH-depleted cells) ([8]; G361, 50 µM) | cells with low GSH levels (Q1ll, GSH-depleted cells) ([8]; G361, 100 µM) | cells with low GSH levels (Q1ll, GSH-depleted cells) ([9]; C32, 50 µM) | cells with low GSH levels (Q1ll, GSH-depleted cells) ([9]; C32, 100 µM) | other results
94.3 µM | 76.1 µM | 18.1 µM | 226 µM | 97.9 µM | 40 µM | 134 µM | 56.2 µM | 22.9 µM | 262 µM | 59 µM | 30.2 µM | Cc1cnc2c(c1)Sc1ncccc1N2 [B6, 10H-3-methyl-1,6-diazaphenothiazine] | 83.1 µM | 40.1 µM | 31.9 µM | > 20% |  |  |  |  | 
95.8 µM | 87 µM | 42.7 µM | 511 µM | 109 µM | 60.4 µM | 132 µM | 100 µM | 43 µM | 178 µM | 75.5 µM | 37 µM | Cc1cnc2c(c1)Sc1ncccc1N2Cc1ccccc1 [B10, 3-methyl-10-benzyl-1,6-diazaphenothiazine] | 1930 µM | 932 µM | 656 µM |  | 13% | 25% | 12% | 22% | depolarized cells, decreased mitochondrial membrane potential (Q1lr) ([10]; C32, 50 µM): 15%; depolarized cells, decreased mitochondrial membrane potential (Q1lr) ([10]; C32, 100 µM): 21%; cells with fragmented DNA (M1) [11]: 10%; cells with fragmented DNA (M1) ([12]; C32, 100 µM): 10%; decrease of viability of cells ([4]; at any measurement point (1–100 µM; 24 h, 48 h, 72 h)): ≤ 10%; depolarized (early apoptotic) cells (Q1lr) ([13]; G361, 50 µM): 6%; depolarized (early apoptotic) cells (Q1lr) ([13]; G361, 100 µM): 17%
120 µM | 167 µM | 66.4 µM | 698 µM | 171 µM | 138 µM | 116 µM | 97 µM | 57 µM | 136 µM | 61.5 µM | 49.5 µM | C#CCN1c2cccnc2Sc2cc(C)cnc21 [B9, 3-methyl-10-propargyl-1,6-diazaphenothiazine] | 57.4 µM | 22.2 µM | 11.3 µM | > 20% |  |  |  |  | 
91.4 µM | 89.7 µM | 22.2 µM | 235 µM | 99.5 µM | 17.6 µM | 194 µM | 75.4 µM | 41.6 µM | 292 µM | 64.8 µM | 35.5 µM | Cc1cnc2c(c1)Sc1ncccc1N2C [B7, 3,10-dimethyl-1,6-diazaphenothiazine] | 55.4 µM | 31.7 µM | 30.5 µM | > 20% |  |  |  |  | 
